Test results taken from patent US10626436B2, “Method of determining a compositional or functional characteristic of a cell culture media” (Valitacell Limited, priority 2015, dated 2020).

What was measured:
[1] = system: reference CHO producer cell; assay: Growth of reference CHO producer cell in static microplate culture with a cell stressor in four lots of the same cell culture media; assay type: cell-based; conditions: stressor at an inhibitory concentration, each in triplicate, FIGS. 3-5
Method: FIG. 3: A reference CHO producer cell was grown in static microplate culture in the presence of cobalt chloride (CoCL2) at an inhibitory concentration and four different lots of the same cell culture media (each lot provided in triplicate).
FIG. 4: A reference CHO producer cell was grown in static microplate culture in the presence of menadione sodium bisulphite (MSB2) at an inhibitory concentration and four different lots of the same cell culture media (each lot provided in triplicate).
FIG. 5: A reference CHO producer cell was grown in static microplate culture in the presence of sodium lactate (NaLac) at an inhibitory concentration and four different lots of the same cell culture media (each lot provided in triplicate).

CHO cell line = assay: Chemical fingerprinting: growth of CHO cells with cell stressors in two CD-CHO media lots (Presto Blue assay); assay type: cell-based; conditions: CD-CHO media lot 66 vs lot 28; stressor at IC50 concentration, both MSB concentrations; FIG. 2; p<0.05 (Benjamini-Hockberg)
Method: Two different batches of “CD-CHO media” (Invitrogen, Paisley, UK) were obtained. A CHO cell line was grown in these […] media for 3 passages in 30 ml shake flask culture. “Presto Blue” (Invitrogen, Paisley, UK) was mixed 1:1 with CD-CHO media and 20 ul of this was added to each well. The plate was machine shaken and subsequently incubated for 30 minutes at 37 C in a static humidified incubator. After incubation the fluorescence of the wells was measured (excitation 535 nm emission 620 nm) using a fluoroskan ascent (Thermo-Fisher, Loughborough, UK) plate reader. […] It is clear here that there were significant differences in the cell growth in these different batches of media. This was clearly significant from day 4 onwards.
To test the effect this had on the chemical fingerprint, CHO cells were sub-cultured in CD-CHO in either lot number (66) or (28) for 3 passages. Chemical fingerprinting plates were set up in duplicate to determine the growth of cells in the presence of specific cellular stressors
Using the same CHO cell line used above for the growth studies, inhibitory dose 50 (IC50) concentrations of the above chemicals were identified through growth studies. […]
After this period the level of cell growth in the plates (i.e. in the presence and absence of chemicals as mentioned above) was measured using the “Presto Blue” assay as described above. […]

Compound | growth response of the cell in different lots of the cell culture media in the presence of the stressor [1] | chemical response (cell growth relative to control well) compared between media lots (CHO cell line)
CC1(S(=O)(=O)[O-])CC(=O)c2ccccc2C1=O.[Na+] (stereo not shown) [MSB, Menadione Sodium Bisulphite] | differences in growth response | clearly significant difference
CC(O)C(=O)[O-].[Na+] (stereo not shown) [sodium lactate, Sodium lactate] | differences in growth response | –
[Cl][Co][Cl] [cobalt chloride, Cobalt chloride] | differences in growth response | –
